Measurements from ChEMBL document CHEMBL5441442, “ASAP - In vitro cardiotoxicity” (2024).

Legend:
Format in all cases: toxicity, cell-based, Cricetulus griseus, CHO
[1] = target: Voltage-gated inwardly rectifying potassium channel KCNH2 (Homo sapiens, UniProt Q12809); experiment: (§1) Compounds were solubilised to 10 mM in DMSO and diluted in HBPS to […]. 6-Point concentration-response curves were generated using serial dilutions from the top test concentration. Electrophysiological recordings are made from a Chinese Hamster Ovary cell line stably expressing the full-length ion channel. Single cell ionic currents are measured in whole-cell configuration at room temperature. The internal solution for hERG is buffered to pH 7.3, and the external solution is buffered to pH 7.4. The test pulse was applied according to voltage protocol. Compounds were incubated for 2 min to allow stabilization of the parameters. Concentration-response curves were generated by cumulative addition of compound with concentrations low to high. In all cases, steady-state inhibition was achieved before the next concentration of compound was added. IC50 values or % of inhibition at top test concentration is obtained. The assay has been performed by Concept Life Sciences Ltd.
[2] = target: Sodium channel protein type 5 subunit alpha (Homo sapiens, UniProt Q14524); experiment: (§2) Compounds were solubilised to 10 mM in DMSO and diluted in HBPS to 30 mM. 6-Point concentration-response curves were generated using serial dilutions from the top test concentration. Electrophysiological recordings were made from a Chinese Hamster Ovary cell line stably expressing the full-length ion channel. Single cell ionic currents were measured in whole-cell configuration at room temperature. The internal solution for hNaV1.5 is buffered to pH 7.3, and the external solution is buffered to pH 7.4. The test pulse was applied according to voltage protocol. Compounds were incubated for 2 min to allow stabilization of the parameters. Concentration-response curves were generated by cumulative addition of compound with concentrations low to high. In all cases, steady-state inhibition was achieved before the next concentration of compound was added. To investigate any use-dependence, an 8-pulse voltage protocol is applied at a frequency of 3 Hz. Inhibition is compared at pulse 1 and pulse 8. Any difference in the potency of a compound at P8 versus P1 would be typical of use-dependent block. IC50 values or % inhibition at the top test concentration is obtained. The assay has been performed by Concept Life Sciences Ltd.; settings: for Inhibition: chinese hamster, cho, pH 7.3, 2 min, 2 min, top test concentration 30 uM
[3] = target: NaV1.5 (sodium channel protein type 5 subunit alpha) (Homo sapiens, UniProt Q14524); experiment: as §2; settings: chinese hamster, CHO cells stably expressing full-length hNaV1.5, pH 7.3; top test concentration 30 uM
hERG (KCNH2) = hERG (KCNH2) (Homo sapiens, UniProt Q12809); experiment: as §1; settings: chinese hamster, CHO cells stably expressing full-length hERG, pH 7.3; top test concentration 30 uM

Sodium channel protein type 5 subunit alpha, sequence (Q14524 whole entry): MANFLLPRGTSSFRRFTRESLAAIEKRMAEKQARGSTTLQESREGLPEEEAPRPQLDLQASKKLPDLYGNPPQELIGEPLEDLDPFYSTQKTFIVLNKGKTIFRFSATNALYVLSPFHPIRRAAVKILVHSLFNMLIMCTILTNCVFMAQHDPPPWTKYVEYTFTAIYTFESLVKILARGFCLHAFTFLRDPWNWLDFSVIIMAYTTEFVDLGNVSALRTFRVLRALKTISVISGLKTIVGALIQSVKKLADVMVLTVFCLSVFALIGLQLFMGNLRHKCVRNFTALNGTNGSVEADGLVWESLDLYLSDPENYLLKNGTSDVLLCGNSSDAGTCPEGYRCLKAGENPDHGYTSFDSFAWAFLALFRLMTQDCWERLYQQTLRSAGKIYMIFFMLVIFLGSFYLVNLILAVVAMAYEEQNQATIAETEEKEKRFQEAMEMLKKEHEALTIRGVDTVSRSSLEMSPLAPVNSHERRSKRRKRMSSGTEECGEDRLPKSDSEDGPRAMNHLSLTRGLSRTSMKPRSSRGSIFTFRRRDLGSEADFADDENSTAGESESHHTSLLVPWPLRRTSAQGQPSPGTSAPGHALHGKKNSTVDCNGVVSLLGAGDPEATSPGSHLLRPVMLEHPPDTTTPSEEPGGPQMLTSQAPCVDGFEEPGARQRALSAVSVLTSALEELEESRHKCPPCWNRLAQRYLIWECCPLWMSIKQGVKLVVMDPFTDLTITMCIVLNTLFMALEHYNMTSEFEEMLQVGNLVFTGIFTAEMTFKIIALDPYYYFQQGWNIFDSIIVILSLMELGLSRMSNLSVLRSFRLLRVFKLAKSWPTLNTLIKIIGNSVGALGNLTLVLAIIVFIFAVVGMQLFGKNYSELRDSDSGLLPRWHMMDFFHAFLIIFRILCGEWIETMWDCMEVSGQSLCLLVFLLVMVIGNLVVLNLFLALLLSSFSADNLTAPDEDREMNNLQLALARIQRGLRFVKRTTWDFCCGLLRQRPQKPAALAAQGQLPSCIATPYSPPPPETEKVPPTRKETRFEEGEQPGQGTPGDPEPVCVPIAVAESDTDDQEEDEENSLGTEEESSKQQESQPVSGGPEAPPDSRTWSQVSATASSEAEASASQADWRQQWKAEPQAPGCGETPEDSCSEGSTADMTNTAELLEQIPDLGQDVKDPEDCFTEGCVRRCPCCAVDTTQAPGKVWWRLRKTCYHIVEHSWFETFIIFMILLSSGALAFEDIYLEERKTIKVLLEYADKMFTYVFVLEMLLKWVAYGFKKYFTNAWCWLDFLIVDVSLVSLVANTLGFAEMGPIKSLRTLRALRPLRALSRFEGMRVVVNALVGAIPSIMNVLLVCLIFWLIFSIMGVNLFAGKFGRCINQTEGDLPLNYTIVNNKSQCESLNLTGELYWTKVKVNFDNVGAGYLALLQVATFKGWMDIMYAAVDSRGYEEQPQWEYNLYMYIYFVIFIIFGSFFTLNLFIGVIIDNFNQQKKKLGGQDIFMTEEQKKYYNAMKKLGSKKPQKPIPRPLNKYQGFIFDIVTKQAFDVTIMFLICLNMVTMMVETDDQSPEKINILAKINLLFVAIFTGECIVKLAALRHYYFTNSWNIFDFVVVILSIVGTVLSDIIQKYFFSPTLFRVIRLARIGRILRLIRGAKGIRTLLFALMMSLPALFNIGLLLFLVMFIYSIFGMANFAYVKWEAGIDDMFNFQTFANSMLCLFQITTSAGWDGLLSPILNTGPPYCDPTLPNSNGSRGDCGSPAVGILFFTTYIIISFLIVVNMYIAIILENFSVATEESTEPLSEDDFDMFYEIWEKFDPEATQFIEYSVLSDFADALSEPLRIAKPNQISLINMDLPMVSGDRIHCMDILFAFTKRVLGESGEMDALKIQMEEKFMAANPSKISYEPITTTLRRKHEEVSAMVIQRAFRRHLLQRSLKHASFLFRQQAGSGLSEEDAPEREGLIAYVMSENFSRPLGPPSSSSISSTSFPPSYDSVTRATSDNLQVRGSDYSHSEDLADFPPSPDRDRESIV
NaV1.5 (sodium channel protein type 5 subunit alpha), sequence (Q14524 whole entry): as above

Compound	IC50 [1] [µM]	IC50 [2] [µM]	Inhibition [2] [%]	inhibition at 2 min [3] [%]	Inhibition ([1]; chinese hamster, cho, pH 7.3, 2 min, 2 min, top test concentration 30 uM) [%]	inhibition at 2 min (hERG (KCNH2)) [%]
Cn1ncc(-c2cc3c(N[C@@H](c4ccc5c(n4)OCCO5)C(C)(C)C)ncnc3[nH]2)c1C#N	19.5	> 30	21	17	–	–
CC(C)[C@@H](Nc1ncnc2[nH]c(C(=O)N[C@@H]3CCN(C)C3)cc12)c1ccc2c(c1)S(=O)(=O)CCC2	> 30	> 30	–	11	18	–
COc1ccc([C@H](Cc2nnn[nH]2)NC(=O)c2ncnc3[nH]ccc23)cc1	> 30	> 30	8	9	–	27
CNCc1cc(-c2cc3c(N[C@@H](c4ccc5c(c4)S(=O)(=O)CCC5)C(C)C)ncnc3[nH]2)co1	> 30	> 30	16	10	–	26
C[C@H](C(=O)O)[C@@H](NC(=O)c1ncnc2[nH]ccc12)c1ccc(Br)cc1	> 30	> 30	16	18	–	28
CNC(=O)Cn1cc(-c2cc3c(N[C@@H](c4ccc5c(c4)S(=O)(=O)CCC5)C(C)C)ncnc3[nH]2)cn1	> 30	> 30	26	15	–	23
CC(C)[C@@H](Nc1ncnc2[nH]c(-c3cnn(C)c3C#N)cc12)c1ccc2c(n1)OCCO2	10.1	> 30	25	27	–	–
CC(C)[C@H](Nc1ncnc2[nH]c(-c3cnn(C)c3C#N)cc12)c1ccc2c(n1)OCCO2	11	> 30	35	33	–	–
CC(C)[C@H](Nc1ncnc2[nH]ccc12)c1ccc2c(c1)S(=O)(=O)CCC2	> 30	> 30	29	19	–	39
